This data set in a line: gradient 5% acetonitrile 3 min, to 50% in 2 min, to 85% in 15 min, held 3 min, 100 µL/min. To be noted: column: Zorbax Extend-C18 2.1 x 50 mm; eluents: water / acetonitrile, 0.1% formic acid. The essentials: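 Retention time was recorded from adduct peaks, which were picked computationally and each inspected manually. Pure standards ran in mixtures of ~100 molecules on HPLC coupled to a quadrupole time-of-flight mass spectrometer, in positive and negative ionization mode, through a Zorbax Extend-C18 column (2.1 × 50 mm, 1.8 μm) at 100 μL/min. Eluents were water and acetonitrile, each with 0.1% formic acid.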
In turn, `COc1ccc(-c2noc(C3CC(=O)N(c4ccc(C)c(Cl)c4)C3)n2)cc1OC` (stereo not given) displayed an RP-LC retention time of 1020 s.
In the case of `Cc1cc(C)n(-c2ccnc(N3CCC(C(=O)NCCC(C)C)CC3)n2)n1`, the RP-LC retention time is 836 s.
As for `COc1cc(NC(=O)N2CCCC(C)(C(=O)NCc3ccc(C)cc3)C2)cc(OC)c1OC` (stereo not given), the RP-LC retention time is 811 s.
Consider `Cc1sc(-c2nc(C(C)C)cs2)cc1S(=O)(=O)N1CCN(c2ccccc2)CC1`, for which the RP-LC retention time stood at 1420 s.
`CCOc1ccc(-c2[nH]ncc2CN2C[C@@H]3CCN(S(C)(=O)=O)C[C@]3(CF)C2)cc1`: the RP-LC retention time turned out to be 661 s.
As to `O=C(C1CCN(c2nc(-c3ccc(Cl)cc3)no2)CC1)N1CCOCC1`, the RP-LC retention time was 874 s.
In the case of `Cc1cc(C)n(-c2ccnc(NCc3ccc(F)cc3)n2)n1`, the RP-LC retention time was determined as 829 s.
The molecule `Cc1ccc(CNC(=O)c2ccc(CN3CCN(C4CCCC4)C(=O)C3=O)cc2)o1` registered an RP-LC retention time of 728 s.
`Cc1ccc(C)c(NS(=O)(=O)c2cc3n(c2)CCN(C(C)C)C3=O)c1`: the RP-LC retention time was 794 s.
With `Cc1nc2nc(-c3ccccc3)nn2c(C)c1CC(=O)N1CCCCC1C` (stereo not given), the RP-LC retention time is 836 s.
`NC(=O)C1(c2cccc(F)c2)CC1` had an RP-LC retention time of 694 s.
On to `Cc1ccc(-c2coc(-c3ccc(NC(=O)c4ccco4)cc3)n2)c(C)c1`, for which the RP-LC retention time stood at 1170 s.
In the case of `Cn1ncc2c3ccccc3n(CCCC(=O)NCCc3c[nH]c4ccccc34)c2c1=O` it was 815 s.
`O=C(CCCN1C(=O)C2C3C=CC(C3)C2C1=O)N1CCN(c2ccc(F)cc2)CC1` (stereo not given) came in with an RP-LC retention time of 800 s.
On to `CCOC(=O)c1sc(NC(=O)c2cc(OC)ccc2OC)cc1C`, for which the RP-LC retention time was found to be 1000 s.
`Cc1ccc(N2CC(c3noc(-c4ccc(C(C)(C)C)cc4)n3)CC2=O)cc1` (stereo not given) gave an RP-LC retention time of 1310 s.
Molecule `Cn1cc(-c2nc(C(=O)Nc3cccc(C#N)c3)cs2)c2cccnc21` registered an RP-LC retention time of 946 s.
`CC(C)CC(=O)Nc1ccc(-n2cnc(C(=O)N3CCSCC3)c2)nc1`: the RP-LC retention time came out at 709 s.
For `CCC(C(=O)N1CCN(c2ccc(-c3ccc4c(c3)OCO4)nn2)CC1)c1ccccc1` (stereo not given) the value was 723 s; for `Cc1cc(F)ccc1NS(=O)(=O)c1cc2n(c1)CCN(CC(C)C)C2=O`, 828 s; for `CCCN1CCN(CCCNC(=O)CSc2nc3ccccc3n(C)c2=O)CC1`, 564 s.
In the case of `COc1ccc(-c2cnc(SCC(=O)Nc3cc(C)on3)n2Cc2ccco2)cc1` it was 705 s; in that of `Cc1oc2ccn(C)c(=O)c2c1C(=O)NCc1ccccc1Br`, 914 s.
For the molecule `O=C(C1=NN(Cc2ccccc2F)c2ccc(Cl)cc2S1(=O)=O)N1CCOCC1`, the RP-LC retention time is 875 s.
In the case of `CC1CCCN(C(=O)C2CC(=O)N(c3ccccc3)C2)C1` (stereo not given) it was 786 s; in that of `CCCCN(CC)CCCNC(=O)C1CCCN(c2ncnc3c2nc2n3CCCCC2)C1` (stereo not given), 611 s; in that of `CN(C)C(CNC(=O)Nc1ccccc1C(F)(F)F)c1ccco1` (stereo not given), 566 s.
In the case of `CCCC(=O)Nc1sc2c(c1C(=O)Nc1ccccc1C)CCC2`, the RP-LC retention time stood at 1250 s.
`Cc1cc2n(n1)CCCN2C(=O)CCC(=O)NC1CCN(Cc2ccccc2)CC1` came in with an RP-LC retention time of 579 s.
In the case of `CCOC(=O)c1noc2nc(C)nc(Nc3ccc(C)cc3)c12`, the RP-LC retention time came to 936 s.
In the case of `Cc1ccc(-c2noc(-c3ccccc3S(=O)(=O)N3CCC(C)CC3)n2)cc1` it was 1280 s; in that of `COc1ccc(NC(=O)N(C)CCc2noc(COc3ccc(Cl)cc3)n2)cc1`, 1010 s.
As to `Cc1nn(-c2ccccc2)c(C)c1S(=O)(=O)N1CCC(C(=O)N2CCc3ccccc3C2)CC1`, the RP-LC retention time turned out to be 986 s.
Molecule `CC(C)c1noc(C2CCCCN2Cc2cc(F)cc(F)c2)n1` (stereo not given) yielded an RP-LC retention time of 1170 s.
The molecule `Cn1cc(CN2C[C@@H](CO)[C@H](NC(=O)C3CCC3)C2)c2ccccc21` registered an RP-LC retention time of 615 s.
Consider `C=CCN(CC=C)c1nc(-c2ccc([N+](=O)[O-])cc2)nc2ccccc12`, for which the RP-LC retention time was determined as 1060 s.
Molecule `O=C1CCCc2nc(N3CCN(CCO)CC3)nc(Nc3ccccc3)c21` displayed an RP-LC retention time of 644 s.
Molecule `COCCCNc1nccc(-n2nc(C)cc2C)n1` gave an RP-LC retention time of 631 s.
Consider `COc1ccc(C(=O)NC2CCN(c3ccc(F)cc3)C2=O)cc1` (stereo not given), for which the RP-LC retention time is 756 s.
`Cn1nc(-c2nc(C3CC3)no2)c2c1CCN(C(=O)c1cc3c(s1)CCCC3)C2` returned an RP-LC retention time of 1010 s.
For `O=C(CN1CCc2[nH]c3c(Cl)cccc3c(=O)c2C1)NCc1ccccc1`, the RP-LC retention time came to 598 s.
In the case of `Cc1ccc(C)c(NC(=O)c2csc(-c3ccc(N4CCCC4)nc3)n2)c1` it was 830 s; in that of `CC1CCCN(S(=O)(=O)c2ccc(-n3cnc(C(=O)N4CCCCC4)c3)nc2)C1` (stereo not given), 881 s.
In the case of `Cc1ccc(-c2csc3c(=O)n(CC(=O)NC4CCCC4)cnc23)cc1` it was 912 s.
The molecule `O=C(O)C(c1ccccc1)n1cnnn1` (stereo not given) returned an RP-LC retention time of 585 s.
Molecule `Cc1cc(C)n(-c2nc(CC(=O)Nc3nc(-c4ccccc4)cs3)cs2)n1` yielded an RP-LC retention time of 1120 s.
`Cn1nc(C2CCN(C(=O)c3ccc4ccccc4n3)CC2)c2c1CCOC2`: the RP-LC retention time was 669 s.
`Cn1nccc1-c1cccc(-c2noc(Cc3ccc(Cl)cc3)n2)c1` yielded an RP-LC retention time of 1130 s.
In turn, `Cc1nnc2n1CCC(NC(=O)Cc1cccs1)CC2` (stereo not given) displayed an RP-LC retention time of 550 s.
Take `CCN(CC)CCNC(=O)C1c2ccccc2C(=O)N(C)C1c1cccs1` (stereo not given): the RP-LC retention time was 611 s.
On to `Cn1cnc(S(=O)(=O)N2CCC(c3noc(-c4ccccn4)n3)C2)c1` (stereo not given), for which the RP-LC retention time turned out to be 622 s.
`CCOc1cccc(CNC(=O)c2c(O)c3cccnc3[nH]c2=O)c1` had an RP-LC retention time of 969 s.
Turning to `O=S(=O)(c1cc(-c2nnc(C3CCC3)o2)co1)N1CCc2ccccc2C1`, the RP-LC retention time stood at 1030 s.
`COCCn1c(CC2CCN(C(=O)Nc3cccc(Cl)c3C)C2)nc2cccnc21` (stereo not given) yielded an RP-LC retention time of 631 s.
Turning to `CCOc1nc2ccccc2nc1N1CCCC(C(=O)Nc2cc(C)c(Cl)cc2OC)C1` (stereo not given), the RP-LC retention time was found to be 1400 s.
`CC(=O)c1ccc(NC(=O)Cn2nc3c4cc(-c5ccccc5)nn4ccn3c2=O)cc1`: the RP-LC retention time was found to be 818 s.
In turn, `O=C(CSCc1ccccc1)N1CC(c2nc3ccccc3[nH]2)C1` registered an RP-LC retention time of 573 s.
For `CCN1CCN(C(=O)CN2C(=O)CSc3ccc(C(=O)N4CCCCC4)cc32)CC1` the value was 608 s; for `CCCCCOC(=O)CSc1nnc(-c2ccc(Cl)cc2Cl)o1`, 1320 s.
`Cc1ccc(CNC(=O)CCc2c(C)nn(-c3cc(N4CCOCC4)ncn3)c2C)o1`: the RP-LC retention time turned out to be 700 s.

The values above are taken from the METLIN SMRT retention time set (Domingo-Almenara et al. 2019).
